In US20110033525A1, “Diterpene Glycosides as Natural Solubilizers” (priority 2008, published 2011):
Values after ≈ are worked out from the molar mass of the structure shown. Like-named read-outs stand apart in the source and are kept apart here.

Tests used:
physchem = conditions: for solubility: 25 °C, thermodynamic from solid
Procedure: Solubility test methods: A compound with low solubility was selected and weighed into multiple centrifuge tubes. Each experimental tube received a known amount of the solubilizing agent being tested. The control tubes remained only with the compound. The same volume, 1 mL, unless otherwise indicated, of deionized and distilled water was added to each tube. Alternatively, a set percentage of water solutions containing the solubilizer to be tested (e.g., 5% w/v or 10% w/v) were prepared separately. In these cases, the solubilizer-water solutions were added directly to the tubes containing the low-solubility compound. The tubes were then vortexed briefly and then sonicated for 60 min at temperature of 50° C. unless otherwise indicated. After sonication, the tubes were placed on an orbital shaker at a speed of 80 rpm in an incubator set at 25° C. for at least 24 hr. The tubes were then centrifuged at 4000 rpm for 10 min. The supernatant solution was passed through a 0.2 μm or 0.45 μm filter and analyzed for the concentration of the low-solubility compound, and sometimes the solubilizing compound, by HPLC or UV-Vis spectrophotometer.
The system was computer controlled, and the results were analyzed using Empower software. Calibrations curves were constructed using known concentrations of the compounds and were used to quantify the concentrations of the compounds dissolved in solution. A more complete description of the HPLC procedure for some of the diterpene glycosides is found in G. Chou et al., “Quantitative and fingerprint analyses of Chinese sweet tea plant (Rubus suavissimus S. Lee),” J. Agric. Food Chem., vol.
The ratio of peak areas was used to calculate the increase in water solubility in the absence or presence of solubilizers.

[1] = system: PANC-1 (human pancreatic) cancer cells; test: MTT cellular proliferation assay, PANC-1; format: cell-based; conditions: 72 hr
Procedure: (§1) Paclitaxel and camptothecin were purchased from Sigma Chemicals (St. Louis, Mo.). […] The solution was sonicated for 60 min at 69° C. and then placed in a shaking incubator at 25° C. for 48 hr. The solution was then centrifuged at 4,000×g, and the supernatant was filtered with a 0.2 μm nylon filter. […] The sample was labeled as TXL100. To make an aqueous solution of camptothecin, about 5 mg of camptothecin was weighed into a solution containing 70 mg/ml rubusoside. The solution was sonicated for 60 min at 69° C., and then placed in a shaking incubator at 25° C. for 48 hr. The solution was then centrifuged at 4,000×g and the supernatant was filtered with a 0.2 μm nylon filter. This aqueous solution was analyzed by HPLC and contained 10 μg/ml camptothecin in the presence of 70 mg/ml rubusoside. This sample was labeled as CPT70.
(§2) Inhibition of cellular proliferation was assessed by a MTT assay. Each well of the 96-well plate contained 10^4 cells/100 μl cell culture growth medium. The cells were seeded onto the plate and placed in a 37° C. incubator overnight. On the next day, the compound treatment was set up. A series of dilutions using phosphate buffered saline (PBS) containing 10% FBS (fetal bovine serum) with either the test compound or vehicle with cell culture growth medium was made for each well with a final volume of 200 μl. Each treatment had 8 wells in a column. Prior to the addition of the test compound, the existing medium in each of the wells was aspirated completely and carefully to avoid losing cells. A series of dilutions of the aqueous samples were made ranging from 20 μl to 0.078 μl supplemented with culture media to make a final volume of 200 μl for each well. The plate was placed in a 37° C. incubator for 72 hr. On the day of the staining, MTT solution (3 mg Thiazolyl Blue Tetrazolium Bromide/ml PBS was prepared. To each well, 25 μl MTT solution was directly added. The plate was then incubated for 90 to 120 min. Afterwards, the wells were aspirated completely and carefully. Finally, 50 μl DMSO (dimethyl sulfoxide) was added to each well. The plate was read at 650 nm on a microplate reader. Cell proliferations were calculated as % of the control using the vehicle treatment as the control.
(§3) Calculations of IC50 in molar concentrations were as follows. […] Thus, 1 μl/ml of TXL solution in the culture medium equaled 17 ng TXL/ml culture medium, which equaled 19.9 nM based on the molecular weight of 854.
(§4) CPT: The sample concentration of CPT was 10 μg/ml=10 ng/μl, and the molecular weight of camptothecin is 348. Thus, 1 μl/ml of CPT solution in the culture medium equaled 10 ng CPT/ml culture medium, which equaled 28.7 nM based on the molecular weight of 348.

[2] = system: PC3 (human prostate) cancer cells; test: MTT cellular proliferation assay, PC3; format: cell-based; conditions: 72 hr
Procedure: as §1, §2, §3, §4

[3] = system: A549 (human lung) cancer cells; test: MTT cellular proliferation assay, A549; format: cell-based; conditions: 72 hr
Procedure: as §1
Inhibition of cellular proliferation was assessed by a MTT assay. […] On the day of the staining, MTT solution (3 mg Thiazolyl Blue Tetrazolium Bromide/ml PBS was prepared. To each well, 25 μl MTT solution was directly added. The plate was then incubated for 90 to 120 min. Afterwards, the wells were aspirated completely and carefully. Finally, 50 μl DMSO (dimethyl sulfoxide) was added to each well. The plate was read at 650 nm on a microplate reader. Cell proliferations were calculated as % of the control using the vehicle treatment as the control. […]

[4] = system: various human cancer cell lines; conditions: Kaczirek 2004; read-out: Reported IC50 range; cited from earlier work
[5] = The Merck Index (1996) or Material Safety Data Sheets; cited from earlier work
[6] = Stability of solubilizers and solubilized water solutions (heat, pH, light, storage)
[7] = system: Enterobacter aerogenes (A216RF); test: Germicidal and Detergent Sanitizer Test (modified AOAC); format: cell-based; conditions: solution pH 6.5, 30 Seconds
Procedure: (§5) Germicidal and Detergent Sanitizer Test. The following challenge organisms were grown in trypticase soy broth for 24 h at 37° C.: Staphylococcus aureus (Gram-positive) ATCC 29740 (Newbould 305), Streptococcus agalactiae (Gram-positive) ATCC 27956 (McDonald 44), Streptococcus dysgalactiae (Gram-positive) ATCC 27957, Streptococcus uberis (Gram-positive) ATCC 27958, Escherichia coli (Gram-negative) ATCC 25922, Pseudomonas aeruginosa (Gram-negative) ATCC 27853, and clinical mastitis isolates of Enterobacter aerogenes (Gram-negative) (216RF) and Klebsiella pneumoniae (Gram-negative) (A37RR) from the Louisiana State University Hill Farm Research Station dairy herd.
(§6) Bacterial cultures. Aliquots of each 24-h bacterial culture were standardized to a turbidity of a 0.5 McFarland standard, which corresponds to approximately 150×10^6 colony-forming units (cfu) per ml. Aliquots containing 0.02 ml of this culture were added to 1.98 ml aliquots of the curcumin-rubusoside solution. […] This solution was mixed thoroughly, and diluted 1:1000 in saline, and 0.1 ml was plated on duplicate Letheen Agar (Becton Dickinson, Cockeysville, Md.) plates for each microorganism tested. Resultant colonies were counted after incubation of the plates at 37° C. for 24 h.
(§7) First Experiment. The test compound was a solubilized curcumin water solution. […] The solution was kept in the dark.
(§8) Second Experiment. For the second experiment, the bacterial cultures were as described above. […] First, 100 mL of a 5% w/v rubusoside water solution was prepared. […] This solution was then autoclaved at 115° C. and 1 atmosphere pressure for 30 min. The autoclaved solution was held in an incubator at 37° C. for 72 hr, and kept in the dark. The solution was adjusted to pH 7.4 by adding appropriate amount of phosphate buffered saline powder and then filtered through a 0.45 μm Nylon filter and analyzed on HPLC.

[8] = system: Escherichia coli ATCC 25922; test: as above; format: cell-based
Procedure: as §5, §6, §7, §8

[9] = system: Klebsiella pneumoniae (A37RR); test: as above; format: cell-based; conditions: solution pH 6.5, 30 Seconds
Procedure: as §5, §6, §7, §8

[10] = system: Pseudomonas aeruginosa ATCC 27853; test: as above; format: cell-based
Procedure: as §5, §6, §7, §8

[11] = system: Staphylococcus aureus ATCC 29740 (Newbould 305); test: as above; format: cell-based
Procedure: as §5, §6, §7, §8

[12] = system: Streptococcus agalactiae ATCC 27956 (McDonald 44); test: as above; format: cell-based
Procedure: as §5, §6, §7, §8

[13] = system: Streptococcus dysgalactiae ATCC 27957; test: as above; format: cell-based
Procedure: as §5, §6, §7, §8

[14] = system: Streptococcus uberis ATCC 27958; test: as above; format: cell-based; conditions: solution pH 6.5, 30 Seconds
Procedure: as §5, §6, §7, §8

[15] = in vivo; cited from earlier work
PC3 cells = conditions: existing formulation, Danesi 1995, Rowinsky 1990, read-out: Reported IC50 for PC3 cells, cited from earlier work
[16] = system: MDA-M231 breast cancer cells; conditions: current drug formulation; Nornoo 2008; read-out: Concentration to kill 50% of cells; cited from earlier work
[17] = volume of aqueous sample per ml culture medium
[18] = Homo sapiens, converted from μl/ml, read-out: IC50

Q: Which “Concentration dissolved in rubusoside water solution” value (from here on “Concentration dissolved”) (physchem; 70 mg (109 mM) rubusoside) does the source give for `CC[C@@]1(O)C(=O)OCc2c1cc1n(c2=O)Cc2cc3ccccc3nc2-1` [Camptothecin] here?
A: The value was 144 µM.

Q: And the “Concentration dissolved” value (physchem; 70 mg rubusoside (70 mg/ml, 109 mM))?
A: Its value is 50000 ng/mL.

Q: And the solubility (physchem; aqueous with cosolvent or surfactant or cyclodextrin, Solubility in water with solubilizer, natural solubilizer (rubusoside) 20% w/v (200 mg in 1 ml))?
A: The solubility was 144 µg/mL (≈ 413 µM).

Q: What about the solubility (physchem; water, Solubility of CPT, Table 4, rubusoside amount as in the label) of the same molecule?
A: The solubility was 0.4 µg/mL (≈ 1.15 µM).

Q: What about the IC50 [1, 17] of the same molecule?
A: Its IC50 is 1.91 μl/ml.

Q: And the IC50 [1, 18]?
A: The IC50 was 54.9 nM.

Q: What about the IC50 [2, 17] of the same molecule?
A: The IC50 was 1.03 μl/ml.

Q: What about the IC50 [2, 18] of the same molecule?
A: The IC50 was 29.6 nM.

Q: And the IC50 [3, 17]?
A: Its IC50 is 4.93 μl/ml.

Q: And the IC50 [3, 18]?
A: The IC50 was 142 nM.

Q: What about the IC50 [4] of the same molecule?
A: Its IC50 is 10 to 3500 nM.

Q: What about the “Water solubility in words” value [5] of the same molecule?
A: Its value is “insoluble”.

Q: What about the “Stability of rubusoside water solution at room temperature” value [6] of the same molecule?
A: Its value is “stable at room temperature for at least two weeks”.

Q: What does the source list for `COc1cc(/C=C/C(=O)CC(=O)/C=C/c2ccc(O)c(OC)c2)ccc1O` [Curcumin]?
A: Percent reduction [7]: no observed inhibition; Percent reduction ([8]; solution pH 6.5, 10 Minutes): 98.54%; Percent reduction ([8]; solution pH 6.5, 30 Seconds): no observed inhibition; Percent reduction [9]: no observed inhibition; Percent reduction ([10]; solution pH 6.5, 10 Minutes): 99.99%; Percent reduction ([10]; solution pH 6.5, 30 Seconds): 99.99%; Percent reduction ([11]; solution pH 6.5, 10 Minutes): 26.67%; Percent reduction ([11]; solution pH 6.5, 30 Seconds): 39.33%; Percent reduction ([12]; solution pH 6.5, 10 Minutes): 99.7%; Percent reduction ([12]; solution pH 6.5, 30 Seconds): 91.7%; Percent reduction ([13]; solution pH 6.5, 10 Minutes): 47.92%; Percent reduction ([13]; solution pH 6.5, 30 Seconds): 43.75%; Percent reduction [14]: no observed inhibition

Q: Which Half-life [15] does the source give for `CCCCN(CCCC)CC(O)c1cc(Cl)cc2c1-c1ccc(Cl)cc1/C2=C/c1ccc(Cl)cc1` (stereo not shown) [Lumefantrine] here?
A: Its Half-life is 72 to 140 h.

Q: Which “Solubility in water with solubilizer” value (physchem) does the source give for `CC(=O)O[C@H]1C(=O)[C@@]2(C)[C@H]([C@H](OC(=O)c3ccccc3)[C@]3(O)C[C@H](OC(=O)[C@H](O)[C@@H](NC(=O)c4ccccc4)c4ccccc4)C(C)=C1C3(C)C)[C@]1(OC(C)=O)CO[C@@H]1C[C@@H]2O` [Paclitaxel, reference compound] here?
A: Its value is 10 µg/mL.

Q: What about the Solubility increase factor (physchem) of the same molecule?
A: The Solubility increase factor was “up to 877”.

Q: And the “Concentration dissolved” value (physchem; 20 mg rubusoside in 1 ml water)?
A: Its value is 350 ng/mL.

Q: What about the IC50 [1, 17] of the same molecule?
A: Its IC50 is 0.24 μl/ml.

Q: And the IC50 [1, 18]?
A: Its IC50 is 4.9 nM.

Q: What about the IC50 [2, 17] of the same molecule?
A: The IC50 was 0.69 μl/ml.

Q: And the IC50 [2, 18]?
A: The IC50 was 13.7 nM.

Q: What about the IC50 (PC3 cells; listed as paclitaxel) of the same molecule?
A: Its IC50 is 31.2 nM.

Q: What about the IC50 (PC3 cells) of the same molecule?
A: The IC50 was 50 nM.

Q: What about the IC50 [16] of the same molecule?
A: The IC50 was greater than 1000 nM.
